Experiment: Human HepG2 cell viability assay in 384 well format
Type: toxicity, cell-based
Design: dose 125 nL, time 70.5 hour; concentration not given beside the values
Settings: HepG2 cells, read-out: Inhibition

| Compound | cytotoxicity at 70.5 h [%] |
| --- | --- |
| O=c1c2ccccc2nc2n1C(CSc1ccc(Cl)cc1)CN2 (configuration not stated) | 2.49 |
| COC(=O)c1ccc(Cn2nc(C)cc2C)cc1 | 12.9 |
| COc1ccc(S(=O)(=O)N2CCOC(Cn3ccnc3)C2)cc1 (configuration not stated) | -8.46 |
| CC(=O)c1ccc(S(=O)(=O)N2CCOC(Cn3ccnc3)C2)cc1 (configuration not stated) | -7.46 |
| O=S(=O)(c1ccccc1)N1CCOC(Cn2ccnc2)C1 (configuration not stated) | -6.05 |
| OC1(CN2CCC(Cc3ncccn3)CC2)CCCCC1 | -5.56 |
| CC(C)N1CCN(C)CC(Cc2cc(N(C)C)ncn2)C1 (configuration not stated) | -3.36 |
| Cn1nc(C2CCN(C(=O)c3cnccn3)C2)cc1CCO (configuration not stated) | -2.35 |
| Cc1c[nH]nc1C1CCCN1Cc1ccncc1 (configuration not stated) | -4.73 |
| Cc1cccc(CNC(=O)CC2CCN(Cc3ccccn3)CC2)n1 | -1.17 |
| Cn1cc(CN2CCCCC2c2ccc(-c3cccc(F)c3)nc2)cn1 (configuration not stated) | -1.71 |
| Cc1cc(C(=O)N2CCC(O)(Cn3ccc4ccncc43)CC2)on1 | 17.8 |
| Cc1cc2ccncc2n1CC1(O)CCN(C(=O)c2ccncc2)CC1 | -1.76 |
| O=C(NCc1ccccc1)NCc1nc(-c2ccncc2)n[nH]1 | -3.14 |
| CN1C[C@@H](C(=O)NC(C)(C)C)[C@@]2(CCc3ccccc3C(=O)N2)C1 | 0.823 |
| CN1C[C@@H](C(=O)NCC(F)(F)F)[C@@]2(CCc3ccccc3C(=O)N2)C1 | 3.97 |
| CS(=O)(=O)NC1(CCc2ccc(NC(=O)C3CC3)nc2)CCCCC1 | 15 |
| Cc1csc2c(C3CCCN(C(=O)Cn4cncn4)C3)nc(C)n12 (configuration not stated) | -1.76 |
| CC(C(N)=O)n1nc(-c2cccs2)cc(N)c1=O (configuration not stated) | -3.21 |
| CC(C(=O)NC1CC1)n1nc(-c2cccs2)cc(N)c1=O (configuration not stated) | 6.89 |
| Nc1nc(SCc2ccc3c(c2)OCO3)ns1 | -0.0923 |
| O=C(Cn1cnc2cc3c(cc21)OCCCO3)NCCc1ccccc1 | 0.395 |
| CC(C)N1CCCC1c1nc(N(C)C)ncc1I (configuration not stated) | -4.13 |
| Nc1nccnc1C1CN(C(=O)COc2cccnc2)CCO1 (configuration not stated) | 6.29 |
| COCCN1CCC(C)(c2cc(O)[nH]n2)CC1 | -3.06 |

| Compound | cytotoxicity at 70.5 h [%] |
| --- | --- |
| CCNC(=O)C1(Cc2cc(-c3ccccc3)no2)CCCN(C(C)C)C1 (configuration not stated) | -6.54 |
| O=C(c1ccc2[nH]nnc2c1)N1C[C@H](O)[C@]2(CCCO2)C1 | -1.24 |
| CO[C@H]1CCN(C(=O)c2ccc3[nH]nnc3c2)C[C@@]12CCCO2 | -6.86 |
| O=c1c2ccccc2nc2n1C(CSc1cccc(C(F)(F)F)c1)CN2 (configuration not stated) | -2.38 |
| CN1CCN(c2ncccc2N)CC1 | -11.7 |
| COc1nccc(C(F)(F)F)c1C(=O)O | 0.892 |
| COC(=O)Cc1cn2cc(C(F)(F)F)ccc2n1 | 13.2 |
| CCOC(=O)[C@H]1CNC[C@@H]1C(F)(F)F | -11.1 |
| O=c1[nH]c2ncccc2n1C1CCCCC1 | -6.95 |
| O=C(O)c1cn2cc(C(F)(F)F)ccc2n1 | 2.77 |
| CC(O)c1cn(Cc2ccc(Cl)cc2)nn1 (configuration not stated) | -6.41 |
| CN(C)c1nc2ncc(Cl)cc2cc1C#N | 22 |
| Cc1cc(CN(C)Cc2ncc(C(C)(C)C)o2)no1 | 18.2 |
| Cc1ccc(CN(C)Cc2ncc(C(C)(C)C)o2)o1 | 0.445 |
| N#CCCN1CCN(S(=O)(=O)c2ccc(Cl)s2)CC1 | 15.9 |
| O=C(NCc1nnc2n1CCCCC2)N(CC1CCOC1)C1CC1 (configuration not stated) | 17.7 |
| O=S(=O)(c1ccc(F)cc1Cl)N1CCCC1c1ccncc1 (configuration not stated) | -6.79 |
| COc1c(CNCCc2c[nH]c3cc(F)ccc23)c(C)nn1C | 3.85 |
| COc1c(CNCCc2c[nH]c3ccccc23)c(C)nn1C | 22.7 |
| CN(CCCOc1ccccc1)C(=O)c1csc(-c2nnc[nH]2)n1 | -5.84 |
| Cn1cc(C2CCCN2C(=O)c2cnc(C3CC3)s2)cn1 (configuration not stated) | -5 |
| Cn1cc(C2CCCN2C(=O)c2cnc(-c3ccccn3)s2)cn1 (configuration not stated) | 3.12 |
| COc1cccc(CN(C)C(=O)c2csc(-c3nnc[nH]3)n2)c1 | -1.87 |
| COc1ccc(Br)cc1SCCCS(C)(=O)=O | -0.49 |
| N#CCCn1cnc2c(F)cc(Br)cc2c1=O | -3.98 |

| Compound | cytotoxicity at 70.5 h [%] |
| --- | --- |
| COCCn1cnc2c(F)cc(Br)cc2c1=O | -3.14 |
| CC1c2ccc(F)cc2CCN1C(=O)c1nc(=O)[nH][nH]1 (configuration not stated) | -6.25 |
| N#CCCCn1cnc2c(F)cc(Br)cc2c1=O | -5.69 |
| N#CC(NC(=O)CCCOc1cccnc1)c1ccccc1Cl (configuration not stated) | -3.34 |
| Cc1cc(CN(C)Cc2ncc(-c3ccccc3)o2)no1 | -0.145 |
| CN(CC1CCOC1)c1ccc(Br)cn1 (configuration not stated) | 29.9 |
| COc1c(CNCCc2c[nH]c3ccccc23)c(C(C)C)nn1C | 2.12 |
| Cc1ccc(-c2nc(CCNCc3ccncc3)co2)cc1 | -6.27 |
| CC(C)N(C)CC(=O)NCc1ccccc1N1CCN(C)CC1 | 9.3 |
| CCCN(CCn1c(=O)oc2ccccc21)CC1CC1 | 1.08 |
| CCOC(=O)CCN(Cc1cccnc1)C(=O)c1cc(Cl)c[nH]1 | -6.02 |
| CN1CCN(c2ccccc2CNC(=O)Cc2cccc(F)c2)CC1 | 9.04 |
| CN1CCN(c2ccccc2CNC(=O)CSC(F)(F)F)CC1 | -6.98 |
| O=C(c1c[nH]nn1)N1CCCC1C1CCCCC1 (configuration not stated) | -8.52 |
| CCc1nnsc1C(=O)NCCc1nnc2n1CCC2 | -7.69 |
| COC1CCN(c2ccc(NC(=O)C3CC3)cc2C(F)(F)F)CC1 | -4.49 |
| N#CCCN(Cc1cccnc1)C(=O)c1cc(Cl)c[nH]1 | -7.86 |
| Cc1cnn(CC(C)NCc2ccc(C#N)cc2F)c1 (configuration not stated) | -4.59 |
| CC(C)N(C(=O)Cn1nnnc1CCc1ccccc1)C(C)C | 10.7 |
| O=C(Nc1nncs1)C1CSCN1C(=O)C1CCCC1 (configuration not stated) | -3.88 |
| Brc1csc(-c2noc(C3COCCO3)n2)c1 (configuration not stated) | 0.61 |
| Cc1ccc(S(=O)(=O)Nc2ccc(C)c(C(=O)O)c2)s1 | -0.348 |
| COCCNC(=O)N1CCSC2(CCCCC2)C1 | -4.21 |
| Cc1ccc(N2CCC(Nc3ccc4nnc(C)n4n3)CC2)nc1 | -1.55 |
| CC(C)(C)c1nc(CN(Cc2ccccc2Cl)C2CCCC2)no1 | -2.25 |

| Compound | cytotoxicity at 70.5 h [%] |
| --- | --- |
| CCc1cc(N2CCC(Nc3ccc4nnc(C)n4n3)CC2)ncn1 | 2.09 |
| O=C(c1cc[nH]n1)N1CCc2cc(Br)sc2C1 | 15.1 |
| O=S(=O)(Cc1ccccc1)CC(O)Cn1cccn1 (configuration not stated) | -2.14 |
| CC(=O)NCCNC(=O)Nc1cc(C(C)(C)C)sc1C#N | -1.29 |
| O=C(c1ccc(=O)[nH]n1)N1CCCC1C1CCCC1 (configuration not stated) | -0.243 |
| CCc1ncnc(N2CCCC(c3cc(C(N)=O)[nH]n3)C2)c1F (configuration not stated) | -3.89 |
| CC(C)c1cc(Br)ccc1NC(=O)NC(C)(CO)CO | -5 |
| CCOCCSc1nnc(Cc2ccccc2F)o1 | -0.117 |
| Cc1cnn(CC(C)NCc2cccc(C#N)c2)c1 (configuration not stated) | 2.17 |
| Cc1cnn(CC(C)NCc2cc(C#N)ccc2F)c1 (configuration not stated) | -5.57 |
| COCCOCCSc1nnc(Cc2ccccc2F)o1 | -4.09 |
| COc1ccc(C(C)NCc2ccnn2C)cc1Cn1cccn1 (configuration not stated) | -6.58 |
| CN1CCOC(CNCC(=O)NCCC2=CCCCC2)C1 (configuration not stated) | 4.71 |
| COc1ccccc1CCN(C)C(C)c1nc(-c2cccnc2)no1 (configuration not stated) | 21.2 |
| CC(c1nc(-c2cccnc2)no1)N(C)CCCOc1ccccc1 (configuration not stated) | -3.8 |
| COc1ccc(Br)cc1S(=O)(=O)N(C)Cc1ccc(N(C)C)cc1 | -3.08 |
| Cc1cc(NC(=O)C2CCN(c3ncccc3C#N)CC2)no1 | 3.46 |
| CCc1ccc(N2CCC(NS(=O)(=O)N(CC)CC)CC2)cc1 | -5.14 |
| CN1CCOC(CNC(=O)CCCc2ccccc2)C1 (configuration not stated) | -4.54 |
| CCOC(=O)N(C)CC(=O)NCCc1coc(-c2ccc(C)cc2)n1 | -8.2 |
| CCc1nnc(NC(=O)NCCN(C)C(=O)OC(C)(C)C)s1 | -9.9 |
| CN(Cc1ccccc1CNC(=O)C1CNC(=O)N1)C1CCCCC1 (configuration not stated) | -4.23 |
| CCOc1ccccc1CN(C)C(C)c1nc(-c2cccnc2)no1 (configuration not stated) | -3.75 |
| O=C(COC1CCCC1)NCc1ccc(O)c(F)c1 | -3.82 |
| CC1CCN(c2ccc(C(=O)N3CCCC3c3ccc[nH]3)cn2)CC1 (configuration not stated) | 5.1 |

| Compound | cytotoxicity at 70.5 h [%] |
| --- | --- |
| CN1CCN(CCOc2ccc(NC(=O)c3ccc[nH]3)cc2)CC1 | -2.18 |
| CCN(C(=O)Cn1cc(NC(=O)C(C)(C)C)cn1)c1ccccc1 | -0.681 |
| CC(Cn1ccnc1)NC(=O)NCCN1CCCCCC1=O (configuration not stated) | -4.74 |
| CC(=O)N1CCN(C(=O)NC(C)Cn2ccnc2)CC1 (configuration not stated) | -0.59 |
| Cc1nc(CN2CCN(CC(O)CN3CCOCC3)CC2)oc1C (configuration not stated) | 8.53 |
| CC(C)c1nc(CN2CCN(C(=O)OC(C)(C)C)C(C)C2)no1 (configuration not stated) | -2.12 |
| CN(C)c1ncccc1N(C)C(=O)Cn1cc(-c2ccccc2)nn1 | -3.41 |
| CC(c1ccccc1)N(C)CC(=O)NCCC#N (configuration not stated) | -11.2 |
| COc1cccc(CNC2CCc3ccc(C)cc32)n1 (configuration not stated) | -9.15 |
| CNC(=O)c1cccc(CN2CCC(N(C)Cc3ncc(C)o3)C2)c1 (configuration not stated) | 22.2 |
| O=C(NCCNc1ncccn1)NCCSC(F)(F)F | -10.7 |
| O=C(Cc1cccs1)NCC(=O)Nc1cn[nH]c1 | -11.9 |
| Cn1cc(CN(Cc2ccccc2)Cc2ccccn2)cn1 | 18 |
| Cc1ncccc1-c1cc2cccnc2n1CCCNC(=O)C1CC1 | 1.77 |
| CCOC(=O)[C@H]1CNC[C@H]1C(=O)OCC | -2.7 |
| Cc1cc(C)c(CNCC(O)c2ccc(F)c(F)c2)c(C)c1 (configuration not stated) | -11.4 |
| COCc1nc(-c2ccnc(N3CCNCC3)n2)no1 | 2.75 |
| CC(C)Cc1nc(-c2ccnc(N3CCNCC3)n2)no1 | -7.21 |
| O=c1[nH]c2ncccc2n1C1CCNCC1 | -11 |
| COc1ccc(CN(Cc2ccccn2)Cc2cncn2C)cc1 | -1.37 |
| CCn1nc(C)c(CN(CCCOC)Cc2ccccn2)c1C | 8.89 |
| Cc1c[nH]nc1C1CCCN1Cc1ncc[nH]1 (configuration not stated) | -2.22 |
